Test results as given in US7189711B2, “2, 3-benzodiazepine derivatives and pharmaceutical compositions containing the same as the active ingredient” (Egis Gyogyszergyar RT., priority 2000, dated 2007).

Assays:
[1] = test system: male Wistar rats; experiment: Duration of action in rats as assessed from the decrease in body core temperature (radiotelemetry); assay type: in vivo; conditions: intraperitoneal, mean of 6 animals
Experimental: Duration of Action in Rats as Assessed From the Decrease in Body Core Temperature
One week prior to treatments, 6 male Wistar rats were anaesthetized by administering 60 mg/kg of pentobarbital sodium [sodium 5-ethyl-5-(1-methylbutyl)barbiturate]intraperitoneally. Using sterile surgical procedures, TL11M2C50-PXT or TA10TA-F40 type radiotelemetry transmitters (Data Sciences International, St. Paul, Minn., USA) were implanted into the peritoneal cavity of the animals. The transmitters permitted continuous monitoring of the core body temperature. After implantation, the rats were treated with an antibiotic (benzathine-benzylpenicillin was administered in a dose of 1 ml/kg i.m.). [The chemical name of benzathine-benzylpenicillin: [2S-(2α,5α,6β)]-3,3-dimethyl-7-oxo-6-[(phenoxyacetyl)amino]-4-thia-1-azabicyclo[3.2.0]heptane-2-carboxylic acid]. The animals were housed individually in type 2 plastic rat cages with free access to food and tap water.
The compounds to be examined were dissolved in a mixture of 5 volumes of 5M aqueous hydrochloric acid and 95 volumes of water, then the pH value of the solution was adjusted to 3 by the addition of 1M aqueous sodium hydroxide solution. The solution obtained was administered intraperitoneally in a volume of 10 ml/kg.
Radio signals emitted by the transmitters were detected by RLA1000 or RLA2000 type receivers placed under each cage. Data were collected and saved by a Dataquest IV computerized data acquisition system. The computer was set to sample body temperature for 10 seconds in every second minute. Mean values for 30 min. periods over the whole day were calculated running the “sort utility” of the Dataquest IV system. The upper and lower limits of the evaluating routine were set to exclude biologically improbable values. Individual body temperature curves were averaged for the 6 animals.
Peak effect (PE) was measured as the maximum decrease in body temperature in comparison to the last value prior to treatment (control value). Using the mean values, duration of action (D) of the compounds was determined. This is the time interval from treatment to return of body temperature to the control level.

[2] = test system: male NMRI mice; experiment: Neuroprotective effect in magnesium chloride induced global cerebral ischemia in mice; assay type: in vivo; conditions: intraperitoneal, 30 minutes before i.v. saturated magnesium chloride; linear regression over four doses
Experimental: Neuroprotective Effect in Magnesium Chloride Induced Global Cerebral Ischemia in Mice
The examination was carried out on groups consisting of 10 male NMRI mice weighing 20–25 g. The compounds to be examined were dissolved in a mixture of 5 volumes of 5M aqueous hydrochloric acid and 95 volumes of water, then the pH value of the solution was adjusted to 3 by the addition of 1M aqueous sodium hydroxide solution. The solution obtained was administered intraperitoneally in a volume of 10 ml/kg. Each compound was tested at four increasing dose levels, and a further group of animals was treated only with the vehicle (the latter was the control group). 30 minutes after treatment, all mice received an intravenous injection of saturated aqueous magnesium chloride solution in a volume of 5 ml/kg. This injection caused an immediate cardiac arrest and complete cerebral ischemia. The increase in survival time (i.e. the interval between the injection of magnesium chloride and the last observable gasp) was considered as a measure of the neuroprotective effect according to Berga et al. [Berga, P. et al., Synergistic interactions between piracetam and dihydroergocristine in some animal models of cerebral hypoxia and ischaemia, Arzneim. -Forsch., 36, 1314–1320 (1986)]. Percentage changes in survival time were calculated in comparison to that measured in the control group, and, from the values obtained, the dose prolonging survival by 50% (PD50) was calculated by linear regression analysis.

[3] = N-acetylation in rat liver slices (N-acetyl metabolite by HPLC); assay type: in vitro ADME, Wistar rats; conditions: 50 μM compound, 37° C.
Experimental: Reduction of the rate of N-acetylation due to ortho substitution
Liver slices of Wistar rats were incubated in oxigenized Krebs-Ringer solution at 37° C. in the presence of 50 μM of 2,3-benzodiazepine derivative examined. 0.5 ml aliquots were taken at the beginning of the examination, then after 30 and 60 minutes. Plasma proteins were precipitated with perchloric acid and, after alkalization, the 2,3-benzodiazepine derivatives were extracted with chloroform. The chloroform solutions were evaporated to dryness, the residue was dissolved in the corresponding eluent. The 2,3-benzodiazepine derivative used and the N-acetyl metabolite thereof were determined by high pressure liquid chromatography (Beckman System Gold HPLC, C-18 reversed-phase column) using an UV detector (at 240 nm). Different eluents were used for the optimal separation of the compounds. In case of the compound according to Example 1 and the corresponding 1-(4-amino-phenyl) analogue, the eluent consisted of a mixture of 50% of 2 mM heptafluoro-butyric acid, 25% of methanol and 25% of acetonitrile. For the compound according to Example 3 and the corresponding 1-(4-amino-phenyl) analogue, the eluent was a mixture of 50% of 2 mM heptafluorobutyric acid, 20% of methanol and 30% of acetonitrile. For the compound according to Example 4 and the corresponding 1-(4-amino-phenyl) analogue, the eluent consisted of a mixture of 50% of 2 mM heptafluorobutyric acid and 50% of acetonitrile.
The percentage of N-acetyl metabolite content of the sample taken at a certain time was calculated by dividing the hundredfold of the peak area of the metabolite with the sum of the peak areas of the 2,3-benzodiazepine derivative used and the N-acetyl metabolite. The results obtained are shown in Table 1 in which the concentrations determined after 0, 30 and 60 minutes are indicated.

## CC(=O)N1N=C(c2ccc(N)c(C)c2)c2cc(Cl)ccc2CC1C (racemic) [Example 1, (±)-3-Acetyl-1-(4-amino-3-methylphenyl)-4,5-dihydro-8-chloro-4-methyl-3H-2,3-benzodiazepine]
[1]
  D (duration of action, time from treatment to return of body temperature to control level): 20 h
  PE (peak effect, maximum decrease in body temperature vs. last value prior to treatment): −2.34 Δ° C.
[2]
  PD50 (dose prolonging survival by 50%): 4.6 mg/kg

## CC(=O)N1N=C(c2ccc(N)c(C)c2)c2ccc(Cl)cc2CC1C (racemic)
other
  melting point: 200 to 205 °C

## CC(=O)N1N=C(c2ccc(N)c(Cl)c2)c2cc(Cl)ccc2CC1C (racemic) [Example 3, (±)-3-Acetyl-1-(4-amino-3-chlorophenyl)-4,5-dihydro-8-chloro-4-methyl-3H-2,3-benzodiazepine]
other
  melting point: 143 to 144 °C

## CCC(=O)N1N=C(c2ccc(N)cc2)c2cc(Cl)ccc2CC1C (stereo not shown) [Example 2a, 1-(4-aminophenyl)-4,5-dihydro-8-chloro-4-methyl-3-propionyl-3H-2,3-benzo-diazepine, reference compound]
[1]
  D (duration of action, time from treatment to return of body temperature to control level): 4 h
  PE (peak effect, maximum decrease in body temperature vs. last value prior to treatment): −1.87 Δ° C.

## CC(=O)N1N=C(c2ccc(N)cc2)c2cc(Cl)c(Cl)cc2CC1C (stereo not shown) [Example 4a, 3-acetyl-1-(4-amino-phenyl)-4,5-dihydro-7,8-dichloro-4-methyl-3H-2,3-benzo-diazepine, reference compound]
[1]
  D (duration of action, time from treatment to return of body temperature to control level): 3.5 h
  PE (peak effect, maximum decrease in body temperature vs. last value prior to treatment): −1.72 Δ° C.
[2]
  PD50 (dose prolonging survival by 50%): 11.0 mg/kg

## COc1ccc2c(c1)C(c1ccc(N)c(C)c1)=NN(C(C)=O)C(C)C2 (racemic)
other
  melting point: 169 to 171 °C

## CCC(=O)N1N=C(c2ccc(N)c(C)c2)c2cc(Cl)ccc2CC1C (racemic) [Example 2, (±)-1-(4-Amino-3-methylphenyl)-4,5-dihydro-8-chloro-4-methyl-3-propionyl-3H-2,3-benzodiazepine]
[1]
  D (duration of action, time from treatment to return of body temperature to control level): 6 h
  PE (peak effect, maximum decrease in body temperature vs. last value prior to treatment): −2.04 Δ° C.

## CCC(=O)N1N=C(c2ccc(N)cc2)c2cc(Cl)c(Cl)cc2CC1C (stereo not shown) [Example 5a, 1-(4-aminophenyl)-4,5-dihydro-7,8-dichloro-4-methyl-3-propionyl-3H-2,3-benzo-diazepine, reference compound]
[2]
  PD50 (dose prolonging survival by 50%): 14.6 mg/kg

## CC(=O)N1N=C(c2ccc(N)c(C)c2)c2cc(Cl)c(Cl)cc2CC1C (racemic) [Example 4, (±)-3-Acetyl-1-(4-amino-3-methylphenyl)-4,5-dihydro-7,8-dichloro-4-methyl-3H-2,3-benzodiazepine]
[1]
  D (duration of action, time from treatment to return of body temperature to control level): 19 h
  PE (peak effect, maximum decrease in body temperature vs. last value prior to treatment): −3.09 Δ° C.
[2]
  PD50 (dose prolonging survival by 50%): 9.0 mg/kg

## CC(=O)N1N=C(c2ccc(N)cc2)c2cc(Cl)ccc2CC1C (stereo not shown) [Example 1a, 3-acetyl-1-(4-amino-phenyl)-4,5-dihydro-8-chloro-4-methyl-3H-2,3-benzo-diazepine]
[3]; incubation time 0 min
  Amount of N-acetyl metabolite in %: 0%
[3]; incubation time 30 min
  Amount of N-acetyl metabolite in %: 18%
[3]; incubation time 60 min
  Amount of N-acetyl metabolite in %: 31%

## CCC(=O)N1N=C(c2ccc(N)c(C)c2)c2cc(Cl)c(Cl)cc2CC1C (racemic) [Example 5, (±)-1-(4-Amino-3-methylphenyl)-4,5-dihydro-7,8-dichloro-4-methyl-3-propionyl-3H-2,3-benzodiazepine]
[2]
  PD50 (dose prolonging survival by 50%): 12.3 mg/kg

## CC(=O)N1N=C(c2ccc(N)cc2)c2cc(Cl)ccc2CC1C (stereo not shown) [Example 1a, 3-acetyl-1-(4-amino-phenyl)-4,5-dihydro-8-chloro-4-methyl-3H-2,3-benzo-diazepine, reference compound]
[2]
  PD50 (dose prolonging survival by 50%): 10.4 mg/kg
